Legend:
type I collagen = experiment: Collagen 1 expression in WJMSC cells, Western blotting; assay type: cell-based, human; settings: for expression of pro-collagen 1: FIG. 3(B), ImageJ fold change vs control, normalized to β-actin
Experimental: (§1) Wharton's Jelly mesenchymal stein cells (WJMSC cells: BCRC H-WJ001) were cultured in α-MEM medium supplemented with 10% to 20% of fetal bovine serum (FBS) and 2 to 8 ng/mL of human basic fibroblast growth factor (bFGF). In the present invention, the WJMSC cells are incubated in α-MEM medium supplemented with 10% FBS and 4 ng/mL bFGF. In addition, the WJMSC cells are incubated in an incubator with a temperature of 37° C. and 5% carbon dioxide (CO2).
(§2) The WJMSC cells were seeded onto culture dishes at a cell density of 5×10^4 cells/cm^2, and incubated in a first medium of 10% FBS α-MEM medium supplemented with and 4 ng/mL bFGF for 24 hours. After 24 hours, the first medium was removed and the WJMSC cells were washed by 1× phosphate-buffered saline (PBS) for two to three times. The WJMSC cells were then incubated in a second medium for 48 hours. The second medium contains α-MEM medium supplemented with bFGF (ProSpece cat: cyt-218-b), proline (Calbiochem, cat: #5370), arginine (Merck, cat: #1011542) or L-ascorbic acid (Sigma, cat: SI-A8960) as experimental design. After 48 hours, the cells were collected for protein extraction, and expression of type I collagen (abbreviated to “collagen 1”) and type III collagen (abbreviated to “collagen 3”) was examined.
(§3) The cell medium was removed and the cells were washed by 1× PBS for two times. The cells were treated with 10 mM EDTA (ethylenediaminetetraacetic acid)-PBS solution or 0.5 M acetic acid and scraped down at 4° C. to obtain a first mixture. The first mixture was placed into a centrifuge tube for lysing cells by a sonication process. The sonication process comprises sonication at […] for 15 seconds by an ultrasonicator for three times, and the time interval between each sonication is 30 seconds. After the sonication process, the first mixture was centrifuged at 4° C. at a speed of 2000 rpm for 30 minutes to obtain a protein crud extract.
(§4) In addition, a cell lysis buffer can be used for cell protein extraction. The extraction method comprises the steps of removing cell medium, washing the cells by 1× PBS twice, adding RIPA cell lysis buffer containing 10 mM EDTA into the cells and shaking for at least 30 minutes, scraping down the cells to obtain a cells-lysis buffer mixture, placing the cells-lysis buffer mixture into a centrifuge tube, and centrifuging at 4° C. at a speed of 12000 rpm for at least 15 minutes to obtain a protein crud extract.
(§5) The protein crud extract was then mixed with 25% saturated […] solution, or mixed with 3M sodium chloride (NaCl) solution for reaction at 4° C. for 24 hours to perform a salting-out process. After 24 hours, the mixed solution was centrifuged at 4° C. at a speed of 3500 g for 30 minutes, and a supernatant was removed to preserve a sediment. The sediment was washed by 1× PBS, and centrifuged at 4° C. at a speed of 3500 g for 30 minutes. The sediment was preserved and dissolved by 0.5 M acetic acid solution to obtain a protein extract. The protein extract was then analyzed by Western blotting assay to detect expression of collagen. All the experiments were repeated at least twice and the results with representative are disclosed.
(§6) FIG. 3(A) is a diagram showing effects of L-ascorbic acid and proline on collagen expression in WJMSC cells. In FIG. 3(A), “AA(5)” represents that WJMSC cells were treated with 5 μM L-ascorbic acid, “Pro(2)” represents that WJMSC cells were treated with 2 mM proline, and “bFGF(4)” represents that the WJMSC cells were treated with 4 ng/mL bFGF. In addition, pro-collagen 1, collagen 1, pro-collage 3 and collagen 3 are marked by arrow signs in FIG. 3(A). […] Referring to FIG. 3(B), the results in FIG. 3(A) are quantified by ImageJ software, the quantification method comprises steps of acquiring a density value of a band of a target in Western blotting and normalizing the density value with a density value of β-actin of the same sample to obtain a normalization value. […]

type III collagen = experiment: Collagen 3 expression in WJMSC cells, Western blotting; assay type: cell-based, human; settings: for expression of pro-collagen 3: FIG. 3(B), ImageJ fold change vs control, normalized to β-actin
Experimental: as §1, §2, §3, §4, §5, §6

[1] = tested on: Human foreskin fibroblasts (HS68); experiment: Wound healing of HS68 cells on collagen-coated culture dish; assay type: cell-based; settings: for Wound size (%): dish coated with 50 μg/mL collagen; for Wound healing percentage (%): relative to wound size at 2 hours
Experimental: Human foreskin fibroblasts (HS68) were seed and attached onto a culture dish at a density of 2×10^4 cells/cm^2 and were incubated in 10% FBS DMEM medium for 24 hours. In control group, an ordinary culture dish without any treatment was used. In collagen group, a collagen-coated culture dish used is prepared by dropping appropriate amount of collagen extracted from WJMSC cells at a concentration of 50 μg/mL on a surface of the culture dish, spreading the collagen evenly, and placing the culture dish into a 37° C. incubator overnight to obtain the collagen-coated culture dish. After the HS68 cells were cultured for 24 hours, the culture medium of HS68 cells was removed and the cells were washed by 1× PBS. A wound was generated on the attached cells, and the wound was observed and photographed at 0, 2, 4, 6, and 20 hours after wound generation by a microscopy. The photographs were analyzed by ImageJ software. The region has no cell on it is considered as a wound size, and a wound healing percentage is calculated by the following formula:
Wound healing percentage (%)=[(wound size at observed time point−wound size at 2 hours after wound generation)/wound size at 2 hours after wound generation]×100%.

[2] = WJMSC cells treated with 5 μM L-ascorbic acid
[3] = WJMSC cells treated with 0.2 mM to 20 mM of arginine (FIG. 1)
[4] = WJMSC cells treated with arginine alone, 0.2 mM (FIG. 2)
[5] = WJMSC cells treated with 0.2 mM proline
[6] = WJMSC cells treated with 2 mM proline, vs control
[7] = WJMSC cells treated with 5 mM to 20 mM proline, same enhancement as with 2 mM
[8] = WJMSC cells treated with 4 ng/mL bFGF

O=C1O[C@H]([C@@H](O)CO)C(O)=C1O [L-ascorbic acid]
expression of pro-collagen 1 (type I collagen; 5 μM L-ascorbic acid): enhanced | expression of collagen 1 (type I collagen; [2]): enhanced | expression of pro-collagen 3 (type III collagen; 5 μM L-ascorbic acid): enhanced | expression of collagen 3 (type III collagen; [2]): enhanced

N=C(N)NCCC[C@H](N)C(=O)O [arginine]
expression of collagen 1 (type I collagen; [3]): not is enhanced | expression of collagen 1 (type I collagen; [4]): not enhanced | expression of collagen 3 (type III collagen; [3]): not is enhanced | expression of collagen 3 (type III collagen; [4]): not enhanced

O=C(O)[C@@H]1CCCN1 [proline]
expression of pro-collagen 1 (type I collagen; 2 mM proline): enhanced | expression of collagen 1 (type I collagen; [5]): enhanced | expression of collagen 1 (type I collagen; [6]): enhanced | expression of collagen 1 (type I collagen; [7]): not achieved | expression of pro-collagen 3 (type III collagen; 2 mM proline): enhanced | expression of collagen 3 (type III collagen; [5]): enhanced | expression of collagen 3 (type III collagen; [6]): enhanced | expression of collagen 3 (type III collagen; [7]): not achieved

Collagen
Wound size (%) ([1]; 2 hr after wound generation): 15.2% | Wound healing percentage (%) ([1]; 4 hr after wound generation): 13.0% | Wound size (%) ([1]; 4 hr after wound generation): 13.3% | Wound healing percentage (%) ([1]; 6 hr after wound generation): 38.0% | Wound healing percentage (%) ([1]; 6 hr after wound generation, listed as collagen): 38% | Wound size (%) ([1]; 6 hr after wound generation): 9.4% | Wound healing percentage (%) ([1]; 20 hr after wound generation): 100.0% | Wound healing percentage (%) ([1]; 20 hr after wound generation, listed as collagen): 100% | Wound size (%) ([1]; 20 hr after wound generation): 0.0% | cell density ([1]; 20 hr, 10× objective lens, vs control group (FIG. 6)): higher | cells observed on the wound region ([1]; after 4 hours and 6 hours of wound generation, microscopy, vs control group (FIG. 6)): more significant | wound region covered by cells ([1]; after 20 hours of wound generation, microscopy (FIG. 6)): all covered by cells | wound healing percentage, collagen group compared with control group ([1]; over the observed time points): better

bFGF: human basic fibroblast growth factor (bFGF)
expression of pro-collagen 1 (type I collagen; 4 ng/mL bFGF): enhanced | expression of collagen 1 (type I collagen; [8]): enhanced | expression of pro-collagen 3 (type III collagen; 4 ng/mL bFGF): enhanced | expression of collagen 3 (type III collagen; [8]): enhanced

Source: patent US20190276798A1, “METHOD FOR PREPARING COLLAGEN HAVING REGENERATION AND REPAIR EFFECTS FROM WHARTON'S JELLY MESENCHYMAL STEM CELLS” (P.E. ASIA BIOMEDICINE CO., LTD., priority 2018, published 2019)
